Source: patent US8404670B2 (Sunovion Pharmaceuticals Inc., priority 2009, dated 2013)
pIC50: −log10 of the molar value.

Molecular target: T1, human histamine H3 receptor (Homo sapiens, UniProt Q9Y5N1)
T1 construct: host or cells: cells expressing the human H3 receptor
Test: H3 GTPγS assay (SPA method), histamine H3 in vitro assay
Type: biochemical
Settings: GTPγ[35S] binding to membranes of cells expressing human H3; antagonist mode with R-γ-Me-Histamine at EC80 (30 nM); in one embodiment HCl salts tested; read-out: Potency (functional potency as indicated by IC50)
Procedure: H3 GTPγS assay (SPA method) was performed at EuroScreen (Belgium, ES-392-C) using conventional methods. Briefly, cells expressing the human histamine H3 receptor were homogenized in 15 mM Tris-HCl pH 7.5, 2 mM MgCl2, 0.3 mM EDTA, and 1 mM EGTA. Membranes were washed twice in the above tris buffer, collected by centrifugation (40,000×g, 25 min), and re-suspended in 75 mM Tris-HCl pH 7.5, 12.5 mM MgCl2, 0.3 mM EDTA, 1 mM EGTA, and 250 mM sucrose. Membranes were frozen in liquid nitrogen until use. On the day of the assay, membranes were thawed and diluted in assay buffer (20 mM HEPES pH 7.4, 100 mM NaCl, 10 μg/ml saponin, 1 mM MgCl2) to give 500 μg/ml and mixed (v/v) with GDP in assay buffer for a final GDP concentration of 10 μM and incubated on ice for at least 15 min. PVT-WGA beads (Amersham, RPNQ001) were diluted in assay buffer at 50 mg/mL and mixed with GTPγ[^35S] (Amersham, SJ1308) diluted in assay buffer to give ˜25,000 dpm/10 μL and mixed vol/vol just before the start of the reaction. The reaction was started by adding 50 μL of test compound, 20 μL of the membranes:GDP mix, 10 μL of buffer, and 20 μL of the GTPγ[^35S]:beads mix in a 96 well plate Optiplate™ (PerkinElmer, 6005299) covered with topseal (TopCount™, PerkinElmer), mixed with an orbital shaker for 2 min, incubated for 1 hour at room temperature, centrifuged for 10 min at 2000 rpm, incubated for 1 h at room temperature, and counted for 1 min in a TopCount™ reader (PerkinElmer). Dose response curves and IC50 values (concentration to inhibit the reaction by 50%) were calculated by nonlinear regression using XLfit software (IDBS).
For antagonists testing, 10 μL of a reference agonist (R-γ-Me-Histamine) instead of 10 μL buffer was added at a concentration corresponding to the EC80 (30 nM). Control ligands were R-γ-Me-Histamine (Tocris, 0569), Imetit (Sigma, I-135), Thioperamide (Tocris, 0644), and Clobenpropit (Tocris, 0754) diluted in assay buffer.
The compounds provided herein were tested in the histamine H3 in vitro assay. In one embodiment, the respective HCl salts of the compounds provided herein were prepared using standard chemical procedures and tested in the histamine H3 in vitro assay.

T1 sequence (Q9Y5N1 whole entry): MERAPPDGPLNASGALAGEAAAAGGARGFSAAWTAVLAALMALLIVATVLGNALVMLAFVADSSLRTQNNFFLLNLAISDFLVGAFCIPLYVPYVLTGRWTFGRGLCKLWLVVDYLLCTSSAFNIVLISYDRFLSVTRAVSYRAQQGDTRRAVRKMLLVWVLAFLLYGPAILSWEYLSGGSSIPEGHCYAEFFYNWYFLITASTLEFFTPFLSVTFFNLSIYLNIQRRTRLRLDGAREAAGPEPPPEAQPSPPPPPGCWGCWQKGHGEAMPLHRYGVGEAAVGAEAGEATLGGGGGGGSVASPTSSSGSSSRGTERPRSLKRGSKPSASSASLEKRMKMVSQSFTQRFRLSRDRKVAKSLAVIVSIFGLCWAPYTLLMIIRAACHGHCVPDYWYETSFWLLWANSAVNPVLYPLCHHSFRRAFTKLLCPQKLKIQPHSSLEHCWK

Structure (SMILES)	pIC50
CNC(=O)c1ccc(Oc2ccc3nc4n(c3c2)CCN(C2CCC2)CC4)nc1 [Compound 76]	≤ 6.00
COc1ccnc(Oc2ccc3nc4n(c3c2)CCN(C2CCC2)CC4)n1 [Compound 78]	≥ 6.00
COc1ccnc(Nc2ccc3nc4n(c3c2)CCN(C2CCC2)CC4)n1 [Compound 80]	≥ 6.00
N#Cc1ccc(CNc2ccc3nc4n(c3c2)CCN(C2CCC2)CC4)cc1 [Compound 81]	≥ 7.00
N#Cc1ccc2nc3n(c2c1)CCN(C1CCC1)CC3 [Compound 82]	≤ 6.00
O=C(c1ccc2nc3n(c2c1)CCN(C1CCC1)CC3)N1CCOCC1 [Compound 84]	≥ 6.00
CN(C)C(=O)c1ccc2nc3n(c2c1)CCN(C1CCC1)CC3 [Compound 85]	≤ 6.00
O=C(c1ccc2nc3n(c2c1)CCN(C1CCC1)CC3)N1CCCC1 [Compound 86]	≥ 6.00
c1coc(-c2ccc3nc4n(c3c2)CCN(C2CCC2)CC4)c1 [Compound 90]	≥ 6.00
c1cc2c(cc1-c1cnc(N3CCCC3)cn1)nc1n2CCN(C2CCC2)CC1 [Compound 91]	≥ 7.00
c1cc2c(cc1-c1cncc(N3CCCC3)n1)nc1n2CCN(C2CCC2)CC1 [Compound 94, 3-cyclobutyl-9-(6-(pyrrolidin-1-yl)pyrazin-2-yl)-2,3,4,5-tetrahydro-1H-[1,4]diazepino[1,7-a]benzimidazole]	≥ 7.00
CN(C)Cc1ccc2c(c1)nc1n2CCN(C2CCC2)CC1 [Compound 105]	≥ 7.00
OCc1ccc2c(c1)nc1n2CCN(C2CCC2)CC1 [Compound 106, 2-(3-cyclobutyl-2,3,4,5-tetrahydro-1H-[1,4]diazepino[1,7-a]benzimidazol-9-yl)methanol]	≥ 6.00
COc1ccnc(OCc2ccc3c(c2)nc2n3CCN(C3CCC3)CC2)n1 [Compound 107]	≥ 7.00
N#Cc1ccc(OCc2ccc3c(c2)nc2n3CCN(C3CCC3)CC2)nc1 [Compound 108, 6-((3-cyclobutyl-2,3,4,5-tetrahydro-1H-[1,4]diazepino[1,7-a]benzimidazol-9-yl)methoxy)nicotino-nitrile]	≥ 7.00
OCc1ccc2nc3n(c2c1)CCN(C1CCC1)CC3 [Compound 110, 2-(3-cyclobutyl-2,3,4,5-tetrahydro-1H-[1,4]diazepino[1,7-a]benzimidazol-8-yl)methanol]	≥ 6.00
COc1ccnc(OCc2ccc3nc4n(c3c2)CCN(C2CCC2)CC4)n1 [Compound 111]	≥ 6.00
N#Cc1ccc(OCc2ccc3nc4n(c3c2)CCN(C2CCC2)CC4)nc1 [Compound 112, 6-((3-cyclobutyl-2,3,4,5-tetrahydro-1H-[1,4]diazepino[1,7-a]benzimidazol-8-yl)methoxy)nicotino-nitrile]	≥ 6.00
c1cnc(OCc2ccc3nc4n(c3c2)CCN(C2CCC2)CC4)cn1 [Compound 113, 3-cyclobutyl-9-((pyrazin-2-yloxy)methyl)-2,3,4,5-tetrahydro-1H-[1,4]diazepino[1,7-a]benzimidazole]	≥ 6.00
c1ccc(-c2ccc3c(c2)nc2n3CCN(C3CCC3)CC2)nc1 [Compound 114, 3-cyclobutyl-9-(pyridin-2-yl)-2,3,4,5-tetrahydro-1H-[1,4]diazepino[1,7-a]benzimidazole]	≥ 7.00
c1cncc(-c2ccc3c(c2)nc2n3CCN(C3CCC3)CC2)c1 [Compound 115, 3-cyclobutyl-9-(pyridin-3-yl)-2,3,4,5-tetrahydro-1H-[1,4]diazepino[1,7-a]benzimidazole]	≥ 7.00
OC(c1ccc2c(c1)nc1n2CCN(C2CCC2)CC1)c1cnccn1 (stereo not drawn) [Compound 120, (3-cyclobutyl-2,3,4,5-tetrahydro-1H-benzo[4,5]imidazo[1,2-d][1,4]diazepin-8-yl)(pyrazin-2-yl)methanol]	≥ 7.00
O=C(c1ccc2c(c1)nc1n2CCN(C2CCC2)CC1)c1cnccn1 [Compound 121, (3-cyclobutyl-2,3,4,5-tetrahydro-1H-benzo[4,5]imidazo[1,2-d][1,4]diazepin-8-yl)(pyrazin-2-yl)methanone]	≥ 7.00
c1cnc(Cc2ccc3c(c2)nc2n3CCN(C3CCC3)CC2)cn1 [Compound 122, 3-cyclobutyl-8-(pyrazin-2-ylmethyl)-2,3,4,5-tetrahydro-1H-benzo[4,5]imidazo[1,2-d][1,4]diazepine]	≥ 7.00
c1cnc(-c2ccc3c(c2)nc2n3CCN(C3CCC3)CC2)nc1 [Compound 123, 3-cyclobutyl-8-(pyrimidin-2-yl)-2,3,4,5-tetrahydro-1H-benzo[4,5]imidazo[1,2-d][1,4]diazepine]	≥ 7.00
c1cc(-c2ccc3c(c2)nc2n3CCN(C3CCC3)CC2)ncn1 [Compound 124, 3-cyclobutyl-8-(pyrimidin-4-yl)-2,3,4,5-tetrahydro-1H-benzo[4,5]imidazo[1,2-d][1,4]diazepine]	≥ 7.00
c1cnnc(-c2ccc3c(c2)nc2n3CCN(C3CCC3)CC2)c1 [Compound 125, 3-cyclobutyl-8-(pyridazin-3-yl)-2,3,4,5-tetrahydro-1H-benzo[4,5]imidazo[1,2-d][1,4]diazepine]	≥ 7.00

Continued, values first:

pIC50	Structure (SMILES)
≥ 7.00	O=c1[nH]c2ccccc2n1-c1ccc2c(c1)nc1n2CCN(C2CCC2)CC1 [Compound 72, 1-(3-cyclobutyl-2,3,4,5-tetrahydro-1H-[1,4]diazepino[1,7-a]benzimidazol-9-yl)-1H-benzo[d]imidazol-2(3H)-one]
≥ 8.00	CN1CCN(c2ccc3c(c2)nc2n3CCN(C3CCC3)CC2)CC1 [Compound 73, 3-cyclobutyl-9-(4-methylpiperazin-1-yl)-2,3,4,5-tetrahydro-1H-[1,4]diazepino[1,7-a]benzimidazole]
≥ 8.00	c1cc2c(cc1CN1CCOCC1)nc1n2CCN(C2CCC2)CC1 [Compound 74, 3-cyclobutyl-9-(morpholin-1-ylmethyl)-2,3,4,5-tetrahydro-1H-[1,4]diazepino[1,7-a]benzimidazole]
≥ 8.00	c1cc2c(cc1CN1CCCC1)nc1n2CCN(C2CCC2)CC1 [Compound 75]
≥ 8.00	CN(C)Cc1ccc2nc3n(c2c1)CCN(C1CCC1)CC3 [Compound 87]
≥ 8.00	c1cc2nc3n(c2cc1CN1CCOCC1)CCN(C1CCC1)CC3 [Compound 88, 3-cyclobutyl-8-(morpholin-1-ylmethyl)-2,3,4,5-tetrahydro-1H-[1,4]diazepino[1,7-a]benzimidazole]
≥ 8.00	c1cc2nc3n(c2cc1CN1CCCC1)CCN(C1CCC1)CC3 [Compound 89]
≥ 8.00	CN1CCN(c2cnc(-c3ccc4c(c3)nc3n4CCN(C4CCC4)CC3)cn2)CC1 [Compound 92, 3-cyclobutyl-9-(5-(4-methylpiperazin-1-yl)pyrazin-2-yl)-2,3,4,5-tetrahydro-1H-[1,4]diazepino[1,7-a]benzimidazole]
≥ 8.00	CN1CCN(c2cncc(-c3ccc4c(c3)nc3n4CCN(C4CCC4)CC3)n2)CC1 [Compound 95, 3-cyclobutyl-9-(6-(4-methylpiperazin-1-yl)pyrazin-2-yl)-2,3,4,5-tetrahydro-1H-[1,4]diazepino[1,7-a]benzimidazole]
≥ 8.00	c1cc2c(cc1N1CCN(C3CCCC3)CC1)nc1n2CCN(C2CCC2)CC1 [Compound 100, 3-cyclobutyl-9-(4-cyclopentylpiperazin-1-yl)-2,3,4,5-tetrahydro-1H-[1,4]diazepino[1,7-a]benzimidazole]
≥ 8.00	c1cc2c(cc1N1CCN(C3CCCCC3)CC1)nc1n2CCN(C2CCC2)CC1 [Compound 102]
≥ 8.00	c1cc2c(cc1N1CCN(C3CCOCC3)CC1)nc1n2CCN(C2CCC2)CC1 [Compound 103, 3-cyclobutyl-9-(4-(tetrahydro-2H-pyran-4-yl)piperazin-1-yl)-2,3,4,5-tetrahydro-1H-[1,4]diazepino[1,7-a]benzimidazole]
≥ 8.00	c1cc2c(cc1N1CCN(CC3CC3)CC1)nc1n2CCN(C2CCC2)CC1 [Compound 104, 3-cyclobutyl-9-(4-(cyclopropylmethyl)piperazin-1-yl)-2,3,4,5-tetrahydro-1H-[1,4]diazepino[1,7-a]benzimidazole]
≥ 8.00	c1cnc(OCc2ccc3c(c2)nc2n3CCN(C3CCC3)CC2)cn1 [Compound 109]
≥ 8.00	c1ncc(-c2ccc3c(c2)nc2n3CCN(C3CCC3)CC2)cn1 [Compound 126, 3-cyclobutyl-8-(pyrimidin-5-yl)-2,3,4,5-tetrahydro-1H-benzo[4,5]imidazo[1,2-d][1,4]diazepine]
